Laboratory results reported in US10022376B2 (Pfizer Inc., priority 2014, dated 2018).
Counter-ions that a name gives are not always drawn.

System: rhIFNγ stimulated STAT-3 phosphorylation in the A549 human epithelial cell line
Test: A549 Cell Assay: Inhibition of pSTAT3
Format: cell-based
Conditions: A549 cells
Experimental: A549 Cell Assay: Inhibition of pSTAT3
An assay measuring the efficacy of JAK inhibitors on the functional response of recombinant human interferon γ (rhIFNγ) stimulated STAT-3 phosphorylation in the A549 human epithelial cell line.
A549 cells (ATCC #CCL-185), were plated at 30,000 cells/well in 96 well flat bottomed tissue culture plates (BD#353072) in 200 μL of growth medium (DMEM, Pfizer media prep, with 10% Fetal Bovine Serum, Sigma #F4135, 2 mM L-Glutamine, Pfizer media prep, 100 U/mL penicillin, Pfizer media prep, and 200 μg/ml streptomycin, Pfizer media prep), and cultured at 37° C., 5% CO2 incubator for 18 hours. Growth medium was removed by vacuum aspiration (V&P Scientific #vp187 bp-60), and 90 μL of pre-warmed assay medium (DMEM with 0.2% BSA, Miltenyi #130-091-376) was added to each well and incubated for 15 minutes at 37° C. 10 μL of vehicle control or test compound (final concentration range of 0.3 nM to 10 μM with 0.1% DMSO) was added to the cells. Plates were incubated at 37° C. for 1 hour. After compound incubation, 10 μL of 220 ng/mL recombinant human IFNγ (R&D Systems #285-IF, final rhIFNγ concentration of 20 ng/mL) was added to the cells and plates were incubated for 30 minutes at 37° C. Wells containing A549 cells, medium with 0.1% DMSO and no rhIFNγ were used as background controls. After rhIFNγ stimulation, media was aspirated from each well and 35 μL/well of iced-cold MSD lysis buffer containing protease and phosphatase inhibitors from Phospho-STAT3 Tyr705 assay kit (Meso-Scale Discovery #K150DID) was added to each well. Plates were incubated at 4° C. with shaking for 30 minutes. Cell lysates were assayed following the MSD Phospho-STAT3 Tyr705 assay kit protocol to detect pSTAT3.
Data were collected and transformed into percent inhibition and calculated using the following formula: […]

IC50 [nM] | SMILES
31.3 | CCc1cc(O)c(F)cc1-c1cc2[nH]nc(-c3nc(C)c(C)[nH]3)c2c(NCc2ccccc2N(C)S(C)(=O)=O)n1 [Example 158]
30.1 | CCc1cc(O)c(F)cc1-c1nc(NCc2ccccc2N(C)S(C)(=O)=O)c2cn[nH]c2n1 [Example 155, N-[2-({[6-(2-Ethyl-5-fluoro-4-hydroxyphenyl-1H-pyrazolo[3,4-d]pyrimidin-4-yl]amino}methyl)phenyl]-N-methylmethanesulfonamide hydrochloride]

Same assay, conditions: Homo sapiens; A549 cells

IC50 [nM] | SMILES
31.5 | CN(c1ccc(F)cc1CNc1nc(-c2cc(F)c(O)cc2CC(F)(F)F)cc2[nH]nc(C(N)=O)c12)S(C)(=O)=O [Example 88, 6-[5-fluoro-4-hydroxy-2-(2,2,2-trifluoroethyl)phenyl]-4-({5-fluoro-2-[methyl(methylsulfonyl)amino]benzyl}amino)-1H-pyrazolo[4,3-c]pyridine-3-carboxamide]
161 | CN(c1ccccc1CNc1nc(-c2cc(F)c(O)cc2CC(F)(F)F)cc2[nH]nc(C(N)=O)c12)S(=O)(=O)c1ccc(N2CCOCC2)nc1 [Example 65, 6-[5-fluoro-4-hydroxy-2-(2,2,2-trifluoroethyl)phenyl]-4-{[2-(methyl{[6-(morpholin-4-yl)pyridin-3-yl]sulfonyl}amino)benzyl]amino}-1H-pyrazolo[4,3-c]pyridine-3-carboxamide]
899 | CCN(c1ccc(O)cc1CNc1nc(-c2cc(F)c(O)cc2CC(F)(F)F)nc2[nH]nc(C(N)=O)c12)S(=O)(=O)c1ccccc1 [Example 107, 4-((2-(N-ethylphenylsulfonamido)-5-hydroxybenzyl)amino)-6-(5-fluoro-4-hydroxy-2-(2,2,2-trifluoroethyl)phenyl)-1H-pyrazolo[3,4-d]pyrimidine-3-carboxamide]
23.4 | CCc1cc(O)c(F)cc1-c1cc2[nH]nc(C(=O)NC)c2c(NCc2cc(Cl)ccc2N(C)S(C)(=O)=O)n1 [Example 6, 4-({5-chloro-2-[methyl(methylsulfonyl)amino]benzyl}amino)-6-(2-ethyl-5-fluoro-4-hydroxyphenyl)-N-methyl-1H-pyrazolo[4,3-c]pyridine-3-carboxamide]
235 | CCN(c1ccccc1CNc1nc(-c2cc(F)c(O)cc2CC(F)(F)F)nc2[nH]nc(C(=O)NC)c12)S(C)(=O)=O [Example 103, 4-((2-(N-ethylmethylsulfonamido)benzyl)amino)-6-(5-fluoro-4-hydroxy-2-(2,2,2-trifluoroethyl)-phenyl)-N-methyl-1H-pyrazolo[3,4-d]pyrimidine-3-carboxamide]
20.9 | CCN(c1ccccc1CNc1nc(-c2cc(F)c(O)cc2CC(F)(F)F)cc2[nH]nc(C(N)=O)c12)S(=O)(=O)CC [Example 82, 4-((2-(N-ethylethylsulfonamido)benzyl)amino)-6-(5-fluoro-4-hydroxy-2-(2,2,2-trifluoroethyl)phenyl)-1H-pyrazolo[4,3-c]pyridine-3-carboxamide]
30.7 | CCN(c1ncc(F)cc1CNc1nc(-c2cc(F)c(O)cc2CC(F)(F)F)cc2[nH]nc(C(N)=O)c12)S(C)(=O)=O [Example 79, 4-[({2-[ethyl(methylsulfonyl)amino]-5-fluoropyridin-3-yl}methyl)amino]-6-[5-fluoro-4-hydroxy-2-(2,2,2-trifluoroethyl)phenyl]-1H-pyrazolo[4,3-c]pyridine-3-carboxamide]
14.9 | CN(c1ccccc1CNc1nc(-c2cc(F)c(O)cc2CC(F)(F)F)cc2[nH]ncc12)S(C)(=O)=O [Example 148, N-{2-[({6-[5-Fluoro-4-hydroxy-2-(2,2,2-trifluoroethyl)phenyl]-1H-pyrazolo[4,3-c]pyridin-4-yl}amino)methyl]phenyl}-N-methylmethanesulfonamide]
59.9 | CCc1cc(O)c(F)cc1-c1nc(NCc2ccccc2N(C)S(=O)(=O)c2ccccc2)c2c(C(N)=O)n[nH]c2n1 [Example 95, 6-(2-Ethyl-5-fluoro-4-hydroxyphenyl)-4-((2-(N-methylphenylsulfonamido)benzyl)amino)-1H-pyrazolo[3,4-d]pyrimidine-3-carboxamide]
30.8 | CCc1cc(O)c(F)cc1-c1cc2[nH]nc(C(=O)NC)c2c(N[C@H](C)c2ccccc2N(C)S(C)(=O)=O)n1 [Example 38, 6-(2-Ethyl-5-fluoro-4-hydroxyphenyl)-N-methyl-4-{[(1R)-1-{2-[methyl(methylsulfonyl)amino]phenyl}ethyl]amino}-1H-pyrazolo[4,3-c]pyridine-3-carboxamide]
72.4 | CNC(=O)c1n[nH]c2cc(-c3cc(F)c(O)cc3CC(F)(F)F)nc(NCc3cc(C)ccc3N(C)S(C)(=O)=O)c12 [Example 11, 6-[5-fluoro-4-hydroxy-2-(2,2,2-trifluoroethyl)phenyl]-N-methyl-4-({5-methyl-2-[methyl(methylsulfonyl)amino]benzyl}amino)-1H-pyrazolo[4,3-c]pyridine-3-carboxamide]
21.3 | CNC(=O)c1n[nH]c2cc(-c3cc(F)c(O)cc3CC(F)(F)F)nc(NCc3cccnc3N(C)S(C)(=O)=O)c12 [Example 53, 6-[5-fluoro-4-hydroxy-2-(2,2,2-trifluoroethyl)phenyl]-N-methyl-4-[({2-[methyl(methylsulfonyl)amino]pyridin-3-yl}methyl)amino]-1H-pyrazolo[4,3-c]pyridine-3-carboxamide]
213 | CNC(=O)c1n[nH]c2cc(-c3cc(F)c(O)cc3CC(F)(F)F)nc(NCc3ccccc3CS(N)(=O)=O)c12 [Example 64, 6-[5-fluoro-4-hydroxy-2-(2,2,2-trifluoroethyl)phenyl]-N-methyl-4-{[2-(sulfamoylmethyl)benzyl]amino}-1H-pyrazolo[4,3-c]pyridine-3-carboxamide]
133 | Oc1cc(CC(F)(F)F)c(-c2nc(NCCC3CC3)c3cn[nH]c3n2)cc1F [Example 152, 4-{4-[(2-cyclopropylethyl)amino]-1H-pyrazolo[3,4-d]pyrimidin-6-yl}-2-fluoro-5-(2,2,2-trifluoroethyl)phenol]
213 | CCN(c1ncc(C)cc1CNc1nc(-c2cc(F)c(O)cc2CC(F)(F)F)cc2[nH]nc(C(N)=O)c12)S(C)(=O)=O [Example 87, 4-[({2-[ethyl(methylsulfonyl)amino]-5-methylpyridin-3-yl}methyl)amino]-6-[5-fluoro-4-hydroxy-2-(2,2,2-trifluoroethyl)phenyl]-1H-pyrazolo[4,3-c]pyridine-3-carboxamide]
221 | CN(c1ccccc1CNc1nc(-c2cc(F)c(O)cc2CC(F)(F)F)cc2[nH]nc(C(N)=O)c12)S(=O)(=O)CCCN1CCOCC1 [Example 66, 6-[5-fluoro-4-hydroxy-2-(2,2,2-trifluoroethyl)phenyl]-4-{[2-(methyl{[3-(morpholin-4-yl)propyl]sulfonyl}amino)benzyl]amino}-1H-pyrazolo[4,3-c]pyridine-3-carboxamide]
94.1 | CN(c1ncc(Cl)cc1CNc1nc(-c2cc(F)c(O)cc2CC(F)(F)F)cc2[nH]nc(C(N)=O)c12)S(C)(=O)=O [Example 72, 4-[({5-chloro-2-[methyl(methylsulfonyl)amino]pyridin-3-yl}methyl)amino]-6-[5-fluoro-4-hydroxy-2-(2,2,2-trifluoroethyl)phenyl]-1H-pyrazolo[4,3-c]pyridine-3-carboxamide]
34.4 | CNC(=O)c1n[nH]c2cc(-c3cc(F)c(O)cc3CC(F)(F)F)nc(NCc3ccccc3N(C)S(=O)(=O)CCOC)c12 [Example 60, 6-[5-fluoro-4-hydroxy-2-(2,2,2-trifluoroethyl)phenyl]-4-[(2-{[(2-methoxyethyl)sulfonyl](methyl)amino}benzyl)amino]-N-methyl-1H-pyrazolo[4,3-c]pyridine-3-carboxamide]
32.9 | CCN(c1ccc(Cl)cc1CNc1nc(-c2cc(F)c(O)cc2CC(F)(F)F)cc2[nH]nc(C(N)=O)c12)S(C)(=O)=O [Example 84, 4-((5-chloro-2-(N-ethylmethylsulfonamido)benzyl)amino)-6-(5-fluoro-4-hydroxy-2-(2,2,2-trifluoroethyl)phenyl)-1H-pyrazolo[4,3-c]pyridine-3-carboxamide]
3.3 | CCc1cc(O)c(F)cc1-c1cc2[nH]ncc2c(NCc2ccccc2N(C)S(=O)(=O)CC)n1 [Example 135, N-[2-({[6-(2-ethyl-5-fluoro-4-hydroxyphenyl)-1H-pyrazolo[4,3-c]pyridin-4-yl]amino}methyl)-phenyl]-N-methylethanesulfonamide hydrochloride]
164 | CCc1cc(O)c(F)cc1-c1cc2[nH]nc(C(N)=O)c2c(NCc2ccc(O)cc2N(C)S(C)(=O)=O)n1 [Example 30, 6-(2-Ethyl-5-fluoro-4-hydroxyphenyl)-4-({4-hydroxy-2-[methyl(methylsulfonyl)amino]benzyl}amino)-1H-pyrazolo[4,3-c]pyridine-3-carboxamide]
